According to patent publication US20210380548A1, “Fused [1,2,4]Thiadiazine Derivatives Which Act as KAT Inhibitors of the MYST Family” (CTxT Pty Limited, priority 2017, published 2021):

Tests used:
TIP60-KAT5 [1] = molecular target: T1, TIP60-KAT5 (Homo sapiens, UniProt Q92993); assay: Revised Acetyltransferase Biochemical Assay, KAT5; conditions: 10 nM KAT5, 1 μM AcCoA, 100 nM histone H4, 90 min
T1 construct: encoding amino acid residues 2 to 461 (Uniprot Q92993-2) of human KAT5 isoform; made in house; host or cells: E. coli BL21 DE3
T1 sequence (Q92993 2-461 isoform Q92993-2): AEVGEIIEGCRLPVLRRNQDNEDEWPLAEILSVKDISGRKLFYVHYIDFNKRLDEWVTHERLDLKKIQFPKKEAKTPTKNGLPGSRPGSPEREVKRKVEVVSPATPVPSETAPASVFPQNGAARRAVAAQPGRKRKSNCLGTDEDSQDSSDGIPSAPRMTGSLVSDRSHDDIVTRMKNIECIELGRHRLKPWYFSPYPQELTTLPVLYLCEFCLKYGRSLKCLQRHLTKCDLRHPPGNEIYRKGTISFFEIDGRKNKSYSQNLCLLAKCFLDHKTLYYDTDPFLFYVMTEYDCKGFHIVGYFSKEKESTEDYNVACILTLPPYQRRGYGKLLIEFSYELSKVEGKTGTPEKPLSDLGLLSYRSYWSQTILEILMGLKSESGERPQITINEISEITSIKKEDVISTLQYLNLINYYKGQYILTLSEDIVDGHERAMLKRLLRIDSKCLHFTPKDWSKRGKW

MOZ-KAT6A [2] = molecular target: T2, MOZ-KAT6A (Homo sapiens, UniProt Q92794, A567V); assay: Acetyltransferase biochemical assay (AlphaScreen), KAT6A; conditions: Table 2 (MOZ-KAT6A); 10 μM Acetyl coenzyme A, histone H3.1, 5 nM enzyme
T2 construct: encoding amino acid residues 507 to 778 (Uniprot Q92794-1) of human KAT6A; made in house; host or cells: E. coli BL21 DE3
T2 sequence (Q92794 507-778 A567V limits assumed): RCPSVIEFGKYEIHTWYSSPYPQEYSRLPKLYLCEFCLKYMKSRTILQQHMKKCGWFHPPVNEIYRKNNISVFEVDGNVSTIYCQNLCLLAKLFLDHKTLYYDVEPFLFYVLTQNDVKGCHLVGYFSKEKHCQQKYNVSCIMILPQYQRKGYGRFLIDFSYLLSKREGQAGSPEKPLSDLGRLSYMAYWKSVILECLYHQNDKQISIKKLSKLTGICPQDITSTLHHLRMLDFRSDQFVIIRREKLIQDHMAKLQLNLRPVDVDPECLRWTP

TIP60-KAT5 [3] = molecular target: T1, TIP60-KAT5; assay: Acetyltransferase biochemical assay (AlphaScreen), KAT5; conditions: Table 1 (TIP60-KAT5); 0.4 μM Acetyl coenzyme A, histone H4, 10 nM enzyme
MOZ-KAT6A [4] = molecular target: T2, MOZ-KAT6A; assay: Revised Acetyltransferase Biochemical Assay, KAT6A; conditions: Table 8 (MOZ-KAT6A), 1 μM Acetyl coenzyme A
HBO-KAT7 [5] = molecular target: T3, HBO-KAT7 (Homo sapiens, UniProt O95251); assay: Revised Acetyltransferase Biochemical Assay, KAT7; conditions: Table 9 (HBO-KAT7), 1 μM Acetyl coenzyme A
T3 construct: encoding amino acid residues 325 to 611 (Uniprot 095251-1) of human KAT7; made in house; host or cells: E. coli BL21 DE3 RIL
T3 sequence (O95251 with tags, fused parts or gaps): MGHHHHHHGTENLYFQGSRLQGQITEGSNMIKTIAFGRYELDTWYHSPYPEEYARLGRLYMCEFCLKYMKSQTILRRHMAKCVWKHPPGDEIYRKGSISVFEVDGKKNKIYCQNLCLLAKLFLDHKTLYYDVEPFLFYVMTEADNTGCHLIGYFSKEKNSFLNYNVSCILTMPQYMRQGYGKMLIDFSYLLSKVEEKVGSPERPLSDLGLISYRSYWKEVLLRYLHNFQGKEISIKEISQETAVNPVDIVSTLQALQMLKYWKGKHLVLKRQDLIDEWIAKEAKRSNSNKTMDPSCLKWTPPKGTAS

HBO-KAT7 [6] = molecular target: T3, HBO-KAT7; assay: Acetyltransferase biochemical assay (AlphaScreen), KAT7; conditions: Table 3 (HBO-KAT7); 0.4 μM Acetyl coenzyme A, histone H3.1, 40 nM enzyme

| Compound | IC50 (TIP60-KAT5 [1]) | IC50 (MOZ-KAT6A [2]) | IC50 (TIP60-KAT5 [3]) | IC50 (MOZ-KAT6A [4]) | IC50 (HBO-KAT7 [5]) | IC50 (HBO-KAT7 [6]) |
| --- | --- | --- | --- | --- | --- | --- |
| O=C(NCC(c1ccccc1)c1ncco1)C1=Nc2ccc(F)cc2S(=O)(=O)N1 (single isomer, unassigned) [Example 145] | 7.46 µM | 3.73 µM | 18.9 µM | 0.649 µM |  |  |
| O=C(NCC(c1ccccc1)c1ncco1)C1=Nc2ccc(O)cc2S(=O)(=O)N1 (single isomer, unassigned) [Example 148] |  | 5.39 µM | 45.7 µM |  |  |  |
| O=C(NCC(c1ccccc1)c1ncco1)C1=Nc2ccc(O)cc2S(=O)(=O)N1 (single isomer, unassigned) [Example 149] |  | 0.102 µM | 4.88 µM |  |  |  |
| O=C(NCC(c1ccccc1)c1ncc[nH]1)C1=Nc2ccccc2S(=O)(=O)N1 (single isomer, unassigned) [Example 152] |  | 47.5 µM | 52.8 µM |  |  |  |
| O=C(NCC(c1ccccc1)c1ncco1)C1=Nc2ccc(-c3cnn(CCO)c3)cc2S(=O)(=O)N1 (centres unmarked) [Example 10, 7-(1-(2-Hydroxyethyl)-1H-pyrazol-4-yl)-N-(2-(oxazol-2-yl)-2-phenylethyl)-2H-benzo[e][1,2,4]thiadiazine-3-carboxamide 1,1-dioxide] |  | 0.0906 µM | 79.7 µM |  |  |  |
| O=C(NCC(c1ccccc1)c1ccccc1)C1=Nc2ccc(Br)cc2S(=O)(=O)N1 [Example 15, 7-Bromo-N-(2,2-diphenylethyl)-2H-benzo[e][1,2,4]thiadiazine-3-carboxamide 1,1-dioxide] | 5.55 µM | 0.211 µM | 1.4 µM | 0.682 µM | 0.874 µM |  |
| Cc1ccc2c(c1)S(=O)(=O)NC(C(=O)NCC(c1ccccc1)c1ccccc1)=N2 [Example 16, N-(2,2-Diphenylethyl)-7-methyl-2H-benzo[e][1,2,4]thiadiazine-3-carboxamide 1,1-dioxide] |  | 1.37 µM | 23.8 µM |  |  |  |
| O=C(NCC(c1ccccc1)c1ccccc1)C1=Nc2ccc(C3CC3)cc2S(=O)(=O)N1 [Example 17, 7-Cyclopropyl-N-(2,2-diphenylethyl)-2H-benzo[e][1,2,4]thiadiazine-3-carboxamide 1,1-dioxide] |  | 3.33 µM | 51 µM |  |  |  |
| O=C(NCC(c1ccccc1)c1ccccc1)C1=Nc2ccc(-c3ccn[nH]3)cc2S(=O)(=O)N1 [Example 22, N-(2,2-diphenylethyl)-7-(1H-pyrazol-5-yl)-2H-benzo[e][1,2,4]thiadiazine-3-carboxamide 1,1-dioxide] |  | 1.98 µM | 72.4 µM |  |  |  |
| COC(=O)c1ccc2c(c1)S(=O)(=O)NC(C(=O)NCC(c1ccccc1)c1ncco1)=N2 (centres unmarked) [Example 23, Methyl 3-((2-(oxazol-2-yl)-2-phenylethyl)carbamoyl)-2H-benzo[e][1,2,4]thiadiazine-7-carboxylate 1,1-dioxide] | 1.73 µM | 0.056 µM | 3.73 µM | 0.12 µM | 2.88 µM |  |
| NC(=O)c1ccc2c(c1)S(=O)(=O)NC(C(=O)NCC(c1ccccc1)c1ncco1)=N2 (centres unmarked) [Example 27, N^3-(2-(Oxazol-2-yl)-2-phenylethyl)-2H-benzo[e][1,2,4]thiadiazine-3,7-dicarboxamide 1,1-dioxide] |  | 0.0195 µM | 1.29 µM |  |  |  |
| O=C(NCC(c1ccccc1)c1ccccc1)C1=Nc2ccc(-c3cccnc3)cc2S(=O)(=O)N1 [Example 37, N-(2,2-diphenylethyl)-7-(pyridin-3-yl)-2H-benzo[e][1,2,4]thiadiazine-3-carboxamide 1,1-dioxide] |  | 0.771 µM | 44 µM |  |  |  |
| CNC(=O)C(CNC(=O)C1=Nc2ccccc2S(=O)(=O)N1)c1ccccc1 (centres unmarked) [Example 45, N-(3-(methylamino)-3-oxo-2-phenylpropyl)-2H-benzo[e][1,2,4]thiadiazine-3-carboxamide 1,1-dioxide] |  | 35.2 µM | 109 µM |  |  |  |
| O=C(NCC(OC(=O)N1CCC1)c1ccccc1)C1=Nc2ccccc2S(=O)(=O)N1 (centres unmarked) [Example 51, 2-(1,1-dioxido-2H-benzo[e][1,2,4]thiadiazine-3-carboxamido)-1-phenylethyl azetidine-1-carboxylate] |  | 4.82 µM | 25.3 µM |  |  |  |
| O=C(NCC(c1ccccc1)n1ccnn1)C1=Nc2ccccc2S(=O)(=O)N1 (centres unmarked) [Example 52, N-(2-phenyl-2-(1H-1,2,3-triazol-1-yl)ethyl)-2H-benzo[e][1,2,4]thiadiazine-3-carboxamide 1,1-dioxide] |  | 36.1 µM |  |  |  |  |
| Cc1coc(C(CNC(=O)C2=Nc3ccccc3S(=O)(=O)N2)c2ccccc2)n1 (centres unmarked) [Example 53, N-(2-(4-methyloxazol-2-yl)-2-phenylethyl)-2H-benzo[e][1,2,4]thiadiazine-3-carboxamide 1,1-dioxide] |  | 0.273 µM | 19.8 µM |  |  |  |
| O=C(NCCc1cccc(F)c1)C1=Nc2ccccc2S(=O)(=O)N1 [Example 61] |  | > 125 µM | > 125 µM |  |  |  |
| COc1cccc(CCNC(=O)C2=Nc3ccccc3S(=O)(=O)N2)c1 [Example 62] |  | > 125 µM | > 125 µM |  |  |  |

| Compound | IC50 (TIP60-KAT5 [1]) | IC50 (MOZ-KAT6A [2]) | IC50 (TIP60-KAT5 [3]) | IC50 (MOZ-KAT6A [4]) | IC50 (HBO-KAT7 [5]) | IC50 (HBO-KAT7 [6]) |
| --- | --- | --- | --- | --- | --- | --- |
| O=C(NCCc1ccccc1F)C1=Nc2ccccc2S(=O)(=O)N1 [Example 63] |  | > 125 µM | > 125 µM |  |  |  |
| COc1ccccc1CCNC(=O)C1=Nc2ccccc2S(=O)(=O)N1 [Example 64] |  | 102 µM | 92.1 µM |  |  |  |
| O=C(NCCc1ccccc1C(F)(F)F)C1=Nc2ccccc2S(=O)(=O)N1 [Example 65] |  | 53.9 µM | 85.4 µM |  |  |  |
| O=C(NCCc1ccc(F)cc1)C1=Nc2ccccc2S(=O)(=O)N1 [Example 66] |  | > 125 µM | > 125 µM |  |  |  |
| Cc1ccc(CCNC(=O)C2=Nc3ccccc3S(=O)(=O)N2)cc1 [Example 67] |  | > 125 µM | > 125 µM |  |  |  |
| O=C(NCCc1ccc(Cl)cc1)C1=Nc2ccccc2S(=O)(=O)N1 [Example 69] |  | > 125 µM | > 125 µM |  |  |  |
| O=C(NCCc1cccnc1)C1=Nc2ccccc2S(=O)(=O)N1 [Example 70] |  | > 125 µM | > 125 µM |  |  |  |
| COC(CNC(=O)C1=Nc2ccccc2S(=O)(=O)N1)c1ccccc1 (centres unmarked) [Example 74] |  | 67.5 µM | > 125 µM |  |  |  |
| O=C(NCC(O)c1ccccc1)C1=Nc2ccccc2S(=O)(=O)N1 (centres unmarked) [Example 76] |  | > 125 µM | > 125 µM |  |  |  |
| O=C(NCC(Oc1ccccc1)c1ccccc1)C1=Nc2ccccc2S(=O)(=O)N1 (centres unmarked) [Example 77] |  | 35.5 µM | 87 µM |  |  |  |
| N#Cc1ccccc1CCNC(=O)C1=Nc2ccc(Br)cc2S(=O)(=O)N1 [Example 83] |  | 2.61 µM | 7.38 µM |  |  |  |
| O=C(NCC(c1ccccc1)c1cc2ccccc2[nH]1)C1=Nc2ccc(Br)cc2S(=O)(=O)N1 (centres unmarked) [Example 85] |  | 8.1 µM | 5.97 µM |  |  |  |
| O=C(NCC(O)c1ccc(F)cc1)C1=Nc2ccc(I)cc2S(=O)(=O)N1 (centres unmarked) [Example 127] |  |  | 61.2 µM |  |  | 34.7 µM |
| O=C(NCC(O)c1cccc(C(F)(F)F)c1)C1=Nc2ccc(I)cc2S(=O)(=O)N1 (centres unmarked) [Example 128] |  |  | > 125 µM |  |  | > 125 µM |
| CCNC(=O)C(CNC(=O)C1=Nc2ccccc2S(=O)(=O)N1)c1ccccc1 (centres unmarked) [Example 131] |  | 62.3 µM | > 125 µM |  |  |  |
| O=C(NCC(C(=O)N1CCCCC1)c1ccccc1)C1=Nc2ccccc2S(=O)(=O)N1 (centres unmarked) [Example 133] |  | > 125 µM | > 125 µM |  |  |  |
| O=C(NCC(C(=O)O)c1ccccc1)C1=Nc2ccccc2S(=O)(=O)N1 (centres unmarked) [Example 154, 3-(1,1-Dioxido-2H-benzo[e][1,2,4]thiadiazine-3-carboxamido)-2-phenylpropanoic Acid] |  | > 125 µM | > 125 µM |  |  |  |
